From US11407765B2, “Tetracyclic heteroaryl compounds” (AstraZeneca AB, priority 2018, dated 2022)

target: T1, KRasG12C (Homo sapiens, UniProt P01116, G12C); experiment: KRasG12C functional assay (HTRF, SOS-mediated nucleotide exchange / Raf RBD binding); format: biochemical; settings: 4 hrs incubation with GDP loaded biotinylated KRasG12C; single experiment or average of two or more; read-out: KRasG12C functional assay IC50 value
T1 construct: biotin (biotinylated); made in house
Method: KRasG12C Functional Assay
All enzyme and substrate solutions were prepared in assay buffer containing 20 mM HEPES (pH 7.5), 5 mM MgCl2, 150 mM NaCl, and 0.01% Tween 20. […] In a separate mix 20 nM GST-Raf Ras binding domain (GST-Raf RBD, purified in house) and 4 μg/ml anti-GST XL665 antibody (Cisbio) was prepared in assay buffer containing 50 mM Potassium Fluoride and 0.05 mg/ml BSA and equilibrated for 4 hours before adding 0.6 μM Guanosine 5′-[γ-thio]triphosphate (GTPγS, Sigma) and 0.08 μM SOS (purified in house). 5 μl of the GST-RAF RBD mix was then dispensed into each well of the assay plate. […] This is detected simultaneously via the specific binding interaction between active GTPγS KRas^G12C with GST-Raf RBD which brings the europium and XL665 into close proximity enabling an increased FRET signal to be detected on a Pherastar (BMG) plate reader equipped with the HTRF filter module. […] IC50 values were calculated from normalised dose-response response FRET data curve fitted in Genedata screener (Basel, Switzerland).

T1 sequence (P01116 1-188 isoform P01116-2 G12C): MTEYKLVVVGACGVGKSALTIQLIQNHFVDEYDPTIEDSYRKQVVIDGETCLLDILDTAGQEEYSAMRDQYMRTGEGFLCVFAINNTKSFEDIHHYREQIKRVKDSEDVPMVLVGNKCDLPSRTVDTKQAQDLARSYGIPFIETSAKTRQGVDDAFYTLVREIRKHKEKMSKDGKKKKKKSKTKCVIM

Going from `C=CC(=O)N1CCN2c3ncnc4c(F)c(-c5c(C)ccc6c5C(=O)NC6)c(Cl)c(c34)OC[C@@H]2C1` (single isomer, unassigned) [Example 1] to `C=CC(=O)N1CCN2c3ncnc4c(F)c(-c5c(C)ccc6nc[nH]c(=O)c56)c(Cl)c(c34)OC[C@@H]2C1` (single isomer, unassigned) [Example 6], the IC50 rises from 19 nM to 98 nM (5.2-fold). The first is the more potent here.

Compared with `C=CC(=O)N1CCN2c3ncnc4c(F)c(-c5c(C)ccc6c5C(=O)NC6)c(Cl)c(c34)OC[C@@H]2C1` (single isomer, unassigned) [Example 2], `C=CC(=O)N1CCN2c3ncnc4c(F)c(-c5c(C)ccc6nc[nH]c(=O)c56)c(Cl)c(c34)OC[C@@H]2C1` (single isomer, unassigned) [Example 7] is 26-fold higher in IC50: 290 nM for the first, 7630 nM for the second.

Going from `C=CC(=O)N1C[C@H]2COc3c(Cl)c(-c4c(O)cccc4F)c(F)c4ncnc(c34)N2C[C@H]1C` (single isomer, unassigned) [Example 5] to `C=CC(=O)N1CCN2c3ncnc4c(F)c(-c5c(C)cccc5O)c(Cl)c(c34)OC[C@@H]2C1` (single isomer, unassigned) [Example 13], the IC50 rises from 6350 nM to 9700 nM (1.5-fold).

First: C=CC(=O)N1CCN2c3ncnc4c(F)c(-c5c(C)ccc6[nH]cnc56)c(Cl)c(c34)OC[C@@H]2C1 (single isomer, unassigned) [Example 8]
Second: C=CC(=O)N1CCN2c3ncnc4c(F)c(-c5c(F)ccc6[nH]cnc56)c(Cl)c(c34)OC[C@@H]2C1 (single isomer, unassigned) [Example 21]
The IC50 of the first is 110-fold lower: 12 nM for the first, 1310 nM for the second.

Compared with `CN(C)C/C=C/C(=O)N1CCN2c3ncnc4c(F)c(-c5c(O)cccc5F)c(Cl)c(c34)OC[C@@H]2C1` (single isomer, unassigned) [Example 15], `Cc1ccc2[nH]ncc2c1-c1c(Cl)c2c3c(ncnc3c1F)N1CCN(C(=O)/C=C/CN(C)C)C[C@H]1CO2` (single isomer, unassigned) [Example 31] is 2.9-fold lower in IC50: 19700 nM for the first, 6830 nM for the second.

`C=CC(=O)N1CCN2c3ncnc4c(F)c(-c5c(F)ccc6[nH]ncc56)c(Cl)c(c34)OC[C@@H]2C1` (single isomer, unassigned) [Example 23] and `C=CC(=O)N1CCN2c3ncnc4c(F)c(-c5c(F)ccc6[nH]nnc56)c(Cl)c(c34)OC[C@@H]2C1` (single isomer, unassigned) [Example 27] are within 1.5-fold of each other in IC50: 8960 nM for the first, 12000 nM for the second.

Compared with `C=CC(=O)N1CCN2c3ncnc4c(F)c(-c5c(F)ccc6c5ncn6C)c(Cl)c(c34)OC[C@@H]2C1` (single isomer, unassigned) [Example 25], `C=CC(=O)N1CCN2c3ncnc4c(F)c(-c5c(F)ccc6cc[nH]c(=O)c56)c(Cl)c(c34)OC[C@@H]2C1` (single isomer, unassigned) [Example 29] is 4.9-fold lower in IC50: 13900 nM for the first, 2860 nM for the second.

Compared with `C=CC(=O)N1CCN2c3ncnc4c(F)c(-c5c(C)ccc6cc[nH]c(=O)c56)c(Cl)c(c34)OCCC2C1` (single isomer, unassigned) [Example 34, 8-[3-Chloro-1-fluoro-8-(prop-2-enoyl)-6,6a,7,8,9,10-hexahydro-5H-pyrazino[1′,2′:5,6][1,5]oxazocino[4,3,2-de]quinazolin-2-yl]-7-methylisoquinolin-1(2H)-one], `C=CC(=O)N1C[C@H]2COc3c(Cl)c(-c4c(C)ccc5cc[nH]c(=O)c45)c(F)c4ncnc(c34)N2C[C@H]1C` (single isomer, unassigned) [Example 48] is 26-fold lower in IC50: 1210 nM for the first, 46 nM for the second.

Compared with `C=CC(=O)N1CCN2c3ncnc4c(F)c(-c5c(C)ccc6cc[nH]c(=O)c56)c(Cl)c(c34)OCCC2C1` (single isomer, unassigned) [Example 35, 8-[3-Chloro-1-fluoro-8-(prop-2-enoyl)-6,6a,7,8,9,10-hexahydro-5H-pyrazino[1′,2′:5,6][1,5]oxazocino[4,3,2-de]quinazolin-2-yl]-7-methylisoquinolin-1(2H)-one], `C=CC(=O)N1C[C@H]2COc3c(Cl)c(-c4c(C)ccc5cc[nH]c(=O)c45)c(F)c4ncnc(c34)N2C[C@H]1C` (single isomer, unassigned) [Example 49] is 3.5-fold higher in IC50: 8510 nM for the first, 30000 nM for the second.

Compared with `C=CC(=O)N1CCN2c3ncnc4c(F)c(-c5c(C)ccc6cc[nH]c(=O)c56)c(Cl)c(c34)OCCC2C1` (single isomer, unassigned) [Example 36, 8-[3-Chloro-1-fluoro-8-(prop-2-enoyl)-6,6a,7,8,9,10-hexahydro-5H-pyrazino[1′,2′:5,6][1,5]oxazocino[4,3,2-de]quinazolin-2-yl]-7-methylisoquinolin-1(2H)-one], `C=CC(=O)N1CCN2c3ncnc4c(Cl)c(-c5c(O)cccc5F)c(F)c(c34)OC[C@@H]2C1` (single isomer, unassigned) [Example 44] is 31-fold higher in IC50: 2 nM for the first, 62 nM for the second. The first is the more potent here.

Compared with `C=CC(=O)N1CCN2c3ncnc4c(F)c(-c5c(C)ccc6cc[nH]c(=O)c56)c(Cl)c(c34)OCCC2C1` (single isomer, unassigned) [Example 37, 8-[3-Chloro-1-fluoro-8-(prop-2-enoyl)-6,6a,7,8,9,10-hexahydro-5H-pyrazino[1′,2′:5,6][1,5]oxazocino[4,3,2-de]quinazolin-2-yl]-7-methylisoquinolin-1(2H)-one], `C=CC(=O)N1CCN2c3ncnc4c(Cl)c(-c5c(O)cccc5F)c(F)c(c34)OC[C@@H]2C1` (single isomer, unassigned) [Example 45] is 2-fold lower in IC50: 180 nM for the first, 89 nM for the second.

Going from `C=CC(=O)N1C[C@H]2COc3c(Cl)c(-c4c(C)ccc5[nH]cnc45)c(F)c4ncnc(c34)N2C[C@H]1C` (single isomer, unassigned) [Example 46] to `Cc1ccc2[nH]cnc2c1-c1c(Cl)c2c3c(ncnc3c1F)N1C[C@@H](C)N(C(=O)/C=C/CN(C)C)C[C@H]1CO2` (single isomer, unassigned) [Example 50], the IC50 rises from 59 nM to 140 nM (2.4-fold). The first is the more potent here.

Going from `C=CC(=O)N1C[C@H]2COc3c(Cl)c(-c4c(C)ccc5[nH]cnc45)c(F)c4ncnc(c34)N2C[C@H]1C` (single isomer, unassigned) [Example 47] to `Cc1ccc2[nH]cnc2c1-c1c(Cl)c2c3c(ncnc3c1F)N1C[C@@H](C)N(C(=O)/C=C/CN(C)C)C[C@H]1CO2` (single isomer, unassigned) [Example 51], the IC50 falls from 11200 nM to 1750 nM (6.4-fold). The second is the more potent here.

same assay, conditions: KRasG12C functional assay IC50 value, 4 hrs incubation with GDP loaded biotinylated KRasG12C; single experiment or average of two or more

`C=CC(=O)N1C[C@H]2CCOc3c(Cl)c(-c4c(O)cccc4F)c(F)c4ncnc(c34)N2C[C@@H]1C` (single isomer, unassigned) [Example 32] and `C=CC(=O)N1C[C@@H]2CCOc3c(Cl)c(-c4c(O)cccc4F)c(F)c4ncnc(c34)N2C[C@H]1C` (single isomer, unassigned) [Example 38] are within 1.5-fold of each other in IC50: 3130 nM for the first, 3650 nM for the second.

First: C=CC(=O)N1C[C@H]2CCOc3c(Cl)c(-c4c(O)cccc4F)c(F)c4ncnc(c34)N2C[C@@H]1C (single isomer, unassigned) [Example 33]
Second: C=CC(=O)N1C[C@H]2CCOc3c(Cl)c(-c4c(O)cccc4F)c(F)c4ncnc(c34)N2C[C@H]1C (single isomer, unassigned) [Example 40]
The IC50 of the first is 11-fold lower: 229 nM for the first, 2540 nM for the second. The first is the more potent here.

First: C=CC(=O)N1C[C@H]2CCOc3c(Cl)c(-c4c(O)cccc4F)c(F)c4ncnc(c34)N2C[C@H]1C (single isomer, unassigned) [Example 41]
Second: C=CC(=O)N1C[C@@H]2CCOc3c(Cl)c(-c4c(O)cccc4F)c(F)c4ncnc(c34)N2C[C@@H]1C (single isomer, unassigned) [Example 43]
The IC50 of the first is 4.3-fold lower: 674 nM for the first, 2900 nM for the second. The first is the more potent here.

target: T1, KRasG12C; experiment: KRasG12C mass spectrometry adducting assay; format: binding; settings: 10 μM test compound, 4 μM GDP loaded KRasG12C, 4 hours
Method: KRasG12C Mass Spectrometry Adducting Assay
Enzyme solutions were prepared in assay buffer containing 20 mM HEPES (pH 7.5), 5 mM MgCl2, and 150 mM NaCl. […] The plate was sealed before reading on a Xevo G2 QTOF (Waters) and Acquity LC system (Waters). 10 μl of sample was injected onto a Xbridge BEH300; C4; 3.5 um; 2.1×50 mm column (Waters) running a 3 minute gradient. Blank samples were run in between each test sample.
Data was analysed in Mass Lynx software (Waters), the Total ion count (TIC) trace was used and the eluted protein peak data combined. Using the combined spectrum the data was deconvoluted using MaxEnt1 method. The peak area for apo-protein KRas^G12C (APO) and KRAS+relative cmpd mass (adduct) were measured, and a percentage adduct was calculated using the following calculation: Percent adduct=100*(area of adduct peak/(sum of APO+adduct peaks)

First: C=CC(=O)N1CCN2c3ncnc4c(F)c(-c5c(C)ccc6c5C(=O)NC6)c(Cl)c(c34)OC[C@@H]2C1 (single isomer, unassigned) [Example 1]
Second: C=CC(=O)N1CCN2c3ncnc4c(F)c(-c5c(C)ccc6nc[nH]c(=O)c56)c(Cl)c(c34)OC[C@@H]2C1 (single isomer, unassigned) [Example 6]
The “KRasG12C M. S. Binding Mean adduct %” value of the first is higher: 98% for the first, 95% for the second.

First: C=CC(=O)N1CCN2c3ncnc4c(F)c(-c5c(C)ccc6c5C(=O)NC6)c(Cl)c(c34)OC[C@@H]2C1 (single isomer, unassigned) [Example 2]
Second: C=CC(=O)N1CCN2c3ncnc4c(F)c(-c5c(C)ccc6[nH]cnc56)c(Cl)c(c34)OC[C@@H]2C1 (single isomer, unassigned) [Example 8]
The “KRasG12C M. S. Binding Mean adduct %” value of the first is lower: 25% for the first, 96% for the second.

In the case of `C=CC(=O)N1C[C@H]2COc3c(Cl)c(-c4c(O)cccc4F)c(F)c4ncnc(c34)N2C[C@H]1C` (single isomer, unassigned) [Example 5], the “KRasG12C M. S. Binding Mean adduct %” value is reported as 14%.
